Laboratory results reported in ChEMBL document CHEMBL1151068, “Rollimembrin, a novel acetogenin inhibitor of mammalian mitochondrial complex I” (Bioorg Med Chem Lett, 1997).

target: Mitochondrial complex I; NADH oxidoreductase (Bos taurus, UniProt P25708+P52505); assay: Concentration required for the inhibition of NADH oxidase in submitochondrial particles from beef heart; type: protein-complex assay
Sequence (P25708 21-464 limits assumed, other chains not shown): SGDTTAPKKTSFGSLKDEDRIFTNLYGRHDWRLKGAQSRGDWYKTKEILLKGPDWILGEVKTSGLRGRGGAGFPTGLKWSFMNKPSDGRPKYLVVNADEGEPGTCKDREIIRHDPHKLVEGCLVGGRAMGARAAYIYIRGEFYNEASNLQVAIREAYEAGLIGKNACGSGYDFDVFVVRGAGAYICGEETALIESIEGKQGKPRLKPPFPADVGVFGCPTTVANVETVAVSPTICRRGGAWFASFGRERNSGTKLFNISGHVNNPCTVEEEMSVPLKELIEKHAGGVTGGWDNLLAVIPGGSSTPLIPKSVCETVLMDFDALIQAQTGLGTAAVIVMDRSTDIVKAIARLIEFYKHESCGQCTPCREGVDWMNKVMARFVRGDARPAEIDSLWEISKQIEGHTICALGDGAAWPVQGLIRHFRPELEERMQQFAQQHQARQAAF

Compound	IC50
CCCCCCCCCC[C@H](O)[C@H]1CC[C@@H]([C@@H]2CC[C@H]([C@H](O)CCCCCCCCCCCCC3=C[C@@H](C)OC3=O)O2)O1	0.58 nM
CCCCCCCCCC[C@H](O)[C@H]1CC[C@@H]([C@@H]2CC[C@H]([C@H](O)CCCCCCCCCC[C@@H](O)CC3=C[C@@H](C)OC3=O)O2)O1	0.58 nM
CCCCCCCCCC[C@H](O)[C@H]1CC[C@@H]([C@@H]2CC[C@H]([C@H](O)CCCCCCCC[C@@H](O)CC3=C[C@@H](C)OC3=O)O2)O1	0.33 nM
